Assay results taken from patent US12384813B2, “Polymer linked multimers of guanosine-3′, 5′-cyclic monophosphates” (MIRECA MEDICINES GMBH, priority 2016, dated 2025).

Assays:
[1] = Water solubility of alkyl spacer PLDs; type: physicochemical; conditions: alkyl spacers with moderate size
[2] = molecular target: T1, PKG Iβ (Homo sapiens, UniProt Q13976); assay: In vitro activation of PKG Iβ, ADP-Glo Kinase Assay (luminescence), VASPtide substrate; type: biochemical; conditions: compound lacking PET moiety vs compound 5
T1 construct: made in house; host or cells: Sf9 cells
T1 sequence (Q13976 1-686 isoform Q13976-2): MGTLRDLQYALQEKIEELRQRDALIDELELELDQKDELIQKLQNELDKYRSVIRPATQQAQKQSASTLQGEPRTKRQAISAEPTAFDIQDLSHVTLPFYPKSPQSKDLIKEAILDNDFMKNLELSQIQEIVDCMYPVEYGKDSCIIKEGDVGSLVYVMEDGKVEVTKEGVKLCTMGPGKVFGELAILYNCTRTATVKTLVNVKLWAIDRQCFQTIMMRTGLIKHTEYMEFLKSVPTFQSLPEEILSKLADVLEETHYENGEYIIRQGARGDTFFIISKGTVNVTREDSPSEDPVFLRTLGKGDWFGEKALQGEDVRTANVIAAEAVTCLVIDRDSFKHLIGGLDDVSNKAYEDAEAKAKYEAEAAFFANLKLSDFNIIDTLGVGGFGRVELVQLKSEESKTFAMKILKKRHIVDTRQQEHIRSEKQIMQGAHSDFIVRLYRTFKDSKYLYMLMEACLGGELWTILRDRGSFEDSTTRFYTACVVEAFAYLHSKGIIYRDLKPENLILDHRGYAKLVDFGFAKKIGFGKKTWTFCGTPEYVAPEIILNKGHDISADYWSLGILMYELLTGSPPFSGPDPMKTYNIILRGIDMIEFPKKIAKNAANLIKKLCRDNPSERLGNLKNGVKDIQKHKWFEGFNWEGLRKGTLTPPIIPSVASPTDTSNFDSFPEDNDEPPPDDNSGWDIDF
Experimental: (§1) In vitro activation experiments with PKG isozymes Iα, Iβ and II were performed with the commercially available luminescence assay ADP-Glo™ Kinase Assay (Cat. #V9101) from Promega Corporation (Madison, WI, USA) according to the manufacturer's instruction manual (The ADP-Glo™ Kinase Assay Technical Manual #TM313), standardized and conducted by BIAFFIN GmbH & Co KG (Kassel, Germany). Luminescence detection was accomplished with a LUMIstar Optima microplate luminometer from BMG LABTECH GmbH (Ortenberg, Germany). […] Human PKGIβ and PKGII were expressed in Sf9 cells and purified by affinity chromatography.^2 Concentrations of enzymes given below refer to the dimeric form.
PKG Iβ (0.15 nM), 20 mM Tris (pH 7.4), 10 mM Mg2Cl2, 1 mg/mL BSA, 2.5% DMSO, 130 μM VASPtide, 50 μM ATP, room temperature, 60 min.

[3] = molecular target: T2, PKG II (Homo sapiens, UniProt Q13237); assay: In vitro activation of PKG II, ADP-Glo Kinase Assay (luminescence), VASPtide substrate; conditions: compound lacking PET moiety vs compound 5
T2 sequence (Q13237 1-762): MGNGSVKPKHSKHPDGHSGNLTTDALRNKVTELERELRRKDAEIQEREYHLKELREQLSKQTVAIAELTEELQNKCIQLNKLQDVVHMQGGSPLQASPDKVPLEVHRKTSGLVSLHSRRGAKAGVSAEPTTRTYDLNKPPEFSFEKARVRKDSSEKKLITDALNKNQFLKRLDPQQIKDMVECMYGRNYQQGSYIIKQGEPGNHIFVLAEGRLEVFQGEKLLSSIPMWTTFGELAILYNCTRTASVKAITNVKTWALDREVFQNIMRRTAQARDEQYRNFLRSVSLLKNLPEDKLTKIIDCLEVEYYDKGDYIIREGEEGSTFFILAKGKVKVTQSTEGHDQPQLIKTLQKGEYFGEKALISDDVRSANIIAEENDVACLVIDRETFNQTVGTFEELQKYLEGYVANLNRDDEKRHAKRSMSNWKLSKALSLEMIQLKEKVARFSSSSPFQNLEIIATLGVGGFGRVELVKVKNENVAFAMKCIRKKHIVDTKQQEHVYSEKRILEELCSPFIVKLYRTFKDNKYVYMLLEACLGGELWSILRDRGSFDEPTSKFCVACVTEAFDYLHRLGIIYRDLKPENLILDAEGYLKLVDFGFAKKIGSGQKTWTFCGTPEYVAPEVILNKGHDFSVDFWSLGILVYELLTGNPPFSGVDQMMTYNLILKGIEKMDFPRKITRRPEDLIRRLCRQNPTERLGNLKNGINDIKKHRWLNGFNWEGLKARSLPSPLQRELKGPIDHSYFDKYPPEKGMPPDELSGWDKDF
Experimental: as §1
PKG II (0.5 nM), 20 mM Tris (pH 7.4), 10 mM Mg2Cl2, 1 mg/mL BSA, 5 mM (3-mercaptoethanol, 2.5% DMSO, 130 μM VASPtide, 50 μM ATP, room temperature, 120 min.

[4] = molecular target: T3, PKG Iα (Homo sapiens, UniProt Q13976); conditions: cited from earlier work
T3 sequence (Q13976 1-671): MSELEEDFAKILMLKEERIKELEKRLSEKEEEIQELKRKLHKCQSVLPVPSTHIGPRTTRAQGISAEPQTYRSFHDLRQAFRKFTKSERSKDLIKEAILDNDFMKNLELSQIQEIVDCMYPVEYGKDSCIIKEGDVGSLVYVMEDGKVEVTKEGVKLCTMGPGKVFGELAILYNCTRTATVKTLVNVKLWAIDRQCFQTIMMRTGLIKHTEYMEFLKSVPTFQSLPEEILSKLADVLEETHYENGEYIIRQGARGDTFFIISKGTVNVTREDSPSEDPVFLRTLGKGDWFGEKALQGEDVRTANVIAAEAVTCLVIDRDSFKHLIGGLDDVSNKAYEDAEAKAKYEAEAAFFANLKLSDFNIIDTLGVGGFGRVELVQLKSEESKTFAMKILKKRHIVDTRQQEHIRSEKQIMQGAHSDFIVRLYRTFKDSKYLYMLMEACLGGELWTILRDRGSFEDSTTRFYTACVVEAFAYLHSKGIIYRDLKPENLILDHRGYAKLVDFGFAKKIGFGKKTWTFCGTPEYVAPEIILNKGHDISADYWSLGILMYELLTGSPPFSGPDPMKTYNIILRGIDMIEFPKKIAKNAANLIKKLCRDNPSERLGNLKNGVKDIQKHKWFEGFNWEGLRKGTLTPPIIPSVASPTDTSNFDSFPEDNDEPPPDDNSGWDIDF

SMILES: Nc1nc2c(nc(SCCCCCCCCCCCCSc3nc4c(=O)[nH]c(N)nc4n3[C@@H]3OC4COP(=O)(O)O[C@H]4C3O)n2[C@@H]2OC3COP(=O)(O)O[C@H]3C2O)c(=O)[nH]1 (stereo partly shown) [compound 16, Guanosine-3′,5′-cyclic monophosphate-[8-thio(dodecanyl)-thio-8]-guanosine-3′,5′-cyclic monophosphate]
- water solubility [1]: sufficient water solubility

SMILES: Nc1nc2c(nc(SCC(=O)NCCOCCOCCOCCOCCOCCOCCOCCOCCNC(=O)CSc3nc4c(=O)[nH]c(N)nc4n3C3OC4COP(=O)(O)OC4C3O)n2C2OC3COP(=O)(O)OC3C2O)c(=O)[nH]1 (stereo not shown) [compound 3, Guanosine-3′,5′-cyclic monophosphate-[8-thiomethylamido-(octaethoxy)-ethylamidomethylthio-8]-guanosine-3′,5′-cyclic monophosphate]
- decrease of relative PKG Iβ activation compared to compound 5 [2]: more than 51 fold
- increase of relative PKG II activation compared to compound 5 [3]: 30 fold

SMILES: Nc1nc2c(nc(Sc3ccccc3N)n2[C@@H]2O[C@@H]3COP(=O)(O)O[C@H]3[C@H]2O)c(=O)[nH]1 [8-APT-cGMP, 8-(2-NH2-Ph-S)-cGMP]
- PKG Iα activation potential compared to cGMP (literature) [4]: about 15 fold
